According to ChEMBL document CHEMBL1146710, “Discovery of a novel series of DHODH inhibitors by a docking procedure and QSAR refinement” (Bioorg Med Chem Lett, 2004):

The molecules below were run against Dihydroorotate dehydrogenase (quinone), mitochondrial (Homo sapiens, UniProt Q02127).
Chain of Dihydroorotate dehydrogenase (quinone), mitochondrial (Q02127 whole entry): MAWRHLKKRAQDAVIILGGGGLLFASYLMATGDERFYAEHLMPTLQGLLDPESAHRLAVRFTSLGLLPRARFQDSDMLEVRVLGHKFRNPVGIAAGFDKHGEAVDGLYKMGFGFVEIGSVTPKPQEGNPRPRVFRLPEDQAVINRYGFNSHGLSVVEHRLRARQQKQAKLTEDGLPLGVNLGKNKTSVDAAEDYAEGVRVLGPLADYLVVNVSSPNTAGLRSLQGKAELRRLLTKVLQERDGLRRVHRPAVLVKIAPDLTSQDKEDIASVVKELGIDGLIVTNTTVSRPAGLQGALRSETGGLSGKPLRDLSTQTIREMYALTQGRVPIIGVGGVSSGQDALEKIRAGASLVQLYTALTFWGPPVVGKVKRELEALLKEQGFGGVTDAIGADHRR
Description: In vitro inhibitory activity against human dihydroorotate dehydrogenase (DHODH)

| SMILES | IC50 [nM] |
| --- | --- |
| CN(C)c1ccc(-c2ccc(NC(=O)C3=C(C(=O)O)CCC3)cc2Cl)cc1 | 50 |
| O=C(O)C1=C(C(=O)Nc2c(F)cc(-c3ccccc3F)cc2F)CCC1 | 45 |
| CN(C)c1ccc(-c2cc(F)c(NC(=O)C3=C(C(=O)O)CCC3)c(F)c2)cc1 | 610 |
| O=C(O)C1=C(C(=O)Nc2c(F)c(F)c(-c3cccc(OC(F)(F)F)c3)c(F)c2F)CCC1 | 7 |
| COc1cc(-c2ccccc2Cl)ccc1NC(=O)C1=C(C(=O)O)CCC1 | 225 |
| CC(C)(C)c1ccc(-c2ccc(NC(=O)C3=C(C(=O)O)CCC3)cc2Cl)cc1 | 80 |
| COc1ccccc1-c1ccc(NC(=O)C2=C(C(=O)O)CCC2)c(Cl)c1 | 310 |
| O=C(O)C1=C(C(=O)Nc2c(F)cc(-c3ccccc3Cl)cc2F)CCC1 | 18 |
| COc1ccc(-c2cc(F)c(NC(=O)C3=C(C(=O)O)CCC3)c(F)c2)c(OC)c1 | 90 |
| COc1ccccc1-c1c(F)c(F)c(NC(=O)C2=C(C(=O)O)CCC2)c(F)c1F | 8 |
| O=C(O)C1=C(C(=O)Nc2ccc(-c3ccccc3)cc2)CCC1 | 410 |
| O=C(O)C1=C(C(=O)Nc2ccc(-c3ccc(Br)cc3)c(Cl)c2)CCC1 | 70 |
| O=C(O)C1=C(C(=O)Nc2ccc(-c3cccc4ccccc34)cc2C(F)(F)F)CCC1 | 180 |
| COc1ccc(-c2ccc(NC(=O)C3=C(C(=O)O)CCC3)c(Cl)c2)cc1 | 8400 |

Further lines, results first:

| IC50 [nM] | SMILES |
| --- | --- |
| 5700 | O=C(O)C1=C(C(=O)Nc2ccc(-c3ccc(OC(F)(F)F)cc3)cc2F)CCC1 |
| 370 | N#Cc1cc(-c2cccc(OC(F)(F)F)c2)ccc1NC(=O)C1=C(C(=O)O)CCC1 |
| 170 | COc1cccc(-c2ccc(NC(=O)C3=C(C(=O)O)CCC3)c(OC)c2)c1 |
| 280 | O=C(O)C1=C(C(=O)Nc2ccc(-c3cccc(OC(F)(F)F)c3)cc2F)CCC1 |
| 2900 | O=C(O)C1=C(C(=O)Nc2ccc(-c3ccc(Br)cc3)cc2Cl)CCC1 |
| 390 | O=C(O)C1=C(C(=O)Nc2ccc(-c3cccc(OC(F)(F)F)c3)cc2[N+](=O)[O-])CCC1 |
| 290 | O=C(O)C1=C(C(=O)Nc2ccc(-c3cccc(OC(F)(F)F)c3)cc2Cl)CCC1 |
| 150 | Cc1cc(-c2cccc(OC(F)(F)F)c2)ccc1NC(=O)C1=C(C(=O)O)CCC1 |
| 840 | O=C(O)C1=C(C(=O)Nc2ccc(-c3cccc(OC(F)(F)F)c3)cc2C(F)(F)F)CCC1 |
| 33 | O=C(O)C1=C(C(=O)Nc2c(F)cc(-c3cccc(OC(F)(F)F)c3)cc2F)CCC1 |
| 735 | O=C(O)C1=C(C(=O)Nc2ccc(-c3ccc(Br)cc3)cc2F)CCC1 |
| 20 | O=C(O)C1=C(C(=O)Nc2ccc(-c3cccc(OC(F)(F)F)c3)c(Cl)c2)CCC1 |
| 610 | O=C(O)C1=C(C(=O)Nc2ccc(-c3cccc(O)c3)cc2F)CCC1 |
| 1700 | COc1ccc(-c2ccc(NC(=O)C3=C(C(=O)O)CCC3)c(F)c2)cc1 |
| 17 | CCOc1cccc(-c2cc(F)c(NC(=O)C3=C(C(=O)O)CCC3)c(F)c2)c1 |
